{"source": "patent US11622954B2", "about": "“Estrogen receptor ligands, compositions and methods related thereto” (The Regents of the University of California, priority 2016, dated 2023)", "key": {"[1]": {"tested_on": "multiple sclerosis", "conditions": "cited from earlier work"}, "[2]": {"experiment": "concentrations over time in plasma, spinal cord and brain, adoptive EAE setup (Example 4)", "assay_type": "in vivo, mice", "conditions": "for persistence in brain and spinal tissue: 12 hours", "protocol": "The experimental setup and monitoring was the same as in Example 2. […] Both Compounds 1 and 2 persisted in brain and spinal tissue at 12 hours."}, "[3]": {"tested_on": "active EAE", "experiment": "active EAE clinical score (Example 1)", "assay_type": "in vivo, C57BL6 female mice", "conditions": "high dose (8 mg/kg DPN, 10.8 mg/kg Compound 1), every other day, day 12 to day 48; FIG. 1A"}, "[4]": {"tested_on": "adoptive EAE", "experiment": "adoptive EAE clinical score (Example 2)", "assay_type": "in vivo, mice", "conditions": "FIG. 2A; for EAE clinical score, dose dependence: high (8 mg/kg/day) and low (2 mg/kg/day) dose", "excerpt": "Active EAE induction in Example 1 uses pertussis toxin to artificially make the BBB more permeable and permit more infiltration of activated Th1/Th17 immune cells into the CNS. […] Thus, an alternative EAE induction method was used. Adoptive EAE uses MOG primed and activated immune cells from donor immunized mice for subsequent transfer into recipient mice with no administration of pertussis toxin. Thus, the blood brain barrier interactions in adoptive EAE are more physiologic than in active EAE. […] This experiment was larger since 2 sets of mice (donors and recipients) were needed and 2 doses were used, making the adoptive EAE experiment 4 times larger than the active EAE experiment 1. […] Brain and spinal cord levels were undetectable 24 hours after dosing."}, "[5]": {"experiment": "DPN concentration 24 hours after dosing in adoptive EAE mice (Example 2)", "assay_type": "in vivo", "protocol": "This experiment was larger since 2 sets of mice (donors and recipients) were needed and 2 doses were used, making the adoptive EAE experiment 4 times larger than the active EAE experiment 1.\nBrain and spinal cord levels were undetectable 24 hours after dosing."}, "[6]": {"experiment": "tissue concentrations of DPN in healthy mice (Example 3)", "assay_type": "in vivo", "conditions": "for levels of DPN in plasma, brain and spinal cord, compared to dosing with DPN: molar equivalent doses", "protocol": "Compound 1 levels were not measured. […] At 12 hours, only high dose Compound 1 was detectable in plasma.\nThis experiment was repeated and the data above was confirmed.\nThis experiment was repeated with fresher standards and faster freezing of tissues once obtained from the mouse sacrifice."}, "[7]": {"experiment": "DPN concentration in plasma, spinal cord and brain of active EAE mice (Example 1)", "conditions": "three hours after the end of disease; FIG. 1B-1D"}, "[8]": {"tested_on": "EAE", "conditions": "cited from earlier work"}, "[9]": {"conditions": "MS patients, phase 2 clinical trial"}}, "data": [{"smiles": "C[C@]12CC[C@@H]3c4ccc(O)cc4CC[C@H]3[C@@H]1C[C@@H](O)[C@@H]2O", "note": "[estriol]", "values": [{"measurement": "fatigue", "setting": "[1]; [9]", "result": "reduced fatigue"}, {"measurement": "relapses", "setting": "[1]; [9]", "result": "reduced relapses"}, {"measurement": "cortical gray matter atrophy", "setting": "[1]; estriol as compared to placebo treated MS patients", "result": "spared"}]}, {"smiles": "CCC(=O)Oc1ccc(CC(C#N)c2ccc(OC(=O)CC)cc2)cc1", "note": "(stereo not drawn) [Compound 2]", "values": [{"measurement": "persistence in brain and spinal tissue", "setting": "[2]", "result": "persisted"}, {"measurement": "concentration in plasma, spinal cord and brain tissue, among DPN, Compound 1 and Compound 2", "setting": "[2]; first 6 hours after treatment, FIG. 7A-7C", "result": "highest concentration"}]}, {"smiles": "CC(=O)Oc1ccc(C[C@@H](C#N)c2ccc(OC(C)=O)cc2)cc1", "note": "[Compound 1]", "values": [{"measurement": "effect on EAE disease progression (EAE clinical score)", "setting": "[3]", "result": "protective effects"}, {"measurement": "efficacy on EAE clinical score compared to DPN", "setting": "[4]; adoptive EAE", "result": "more efficacy"}, {"measurement": "EAE clinical score, dose dependence", "setting": "[4]", "result": "dose responses"}, {"measurement": "brain and spinal cord levels", "setting": "[5]", "result": "undetectable"}, {"measurement": "plasma concentration of DPN, Compound 1 vs DPN", "setting": "[5]; FIG. 2B", "result": "no difference"}, {"measurement": "levels of DPN in plasma, brain and spinal cord, compared to dosing with DPN", "setting": "[6]; 3 and 6 hours", "result": "higher"}, {"measurement": "levels of DPN in plasma, brain and spinal cord, compared to dosing with DPN", "setting": "[6]; 15 minutes", "result": "lower"}, {"measurement": "DPN level in plasma", "setting": "[6]; 12 hours, high dose", "result": "detectable"}, {"measurement": "persistence in brain and spinal tissue", "setting": "[2]", "result": "persisted"}, {"measurement": "amounts of DPN in plasma, spinal cord tissue and brain tissue", "setting": "[7]", "result": "improvement in maintaining effective amounts of DPN"}]}, {"smiles": "N#CC(Cc1ccc(O)cc1)c1ccc(O)cc1", "note": "(stereo not drawn) [DPN, 2,3-bis(4-hydroxyphenyl)propanenitrile, reference compound]", "values": [{"measurement": "effect on EAE disease progression (EAE clinical score)", "setting": "[3]", "result": "protective effects"}, {"measurement": "EAE clinical score, dose dependence", "setting": "[4]", "result": "dose responses"}, {"measurement": "brain and spinal cord levels", "setting": "[5]", "result": "undetectable"}, {"measurement": "efficacy in EAE of dosing regimen", "setting": "[8]; dosing every two days, shown in the past", "result": "efficacious"}, {"measurement": "clinical EAE disease severity", "setting": "[8]; known treatment of EAE", "result": "reduces clinical EAE disease severity"}, {"measurement": "tolerability of dosing regimen", "setting": "[8]; mouse, in vivo", "result": "tolerable"}]}]}
